# PubChem BioAssay AID330 (DTP/NCI, 2004)
# Values joined by “and” are separate entries in the source; they are usually repeats but may differ in a detail not shown here. Equal values may be shown once. Toxic doses and inconclusive results are not listed. Peptide text beside a SMILES is read from it. * marks the point of attachment. Boc = CC(C)(C)OC(=O)*; OtBu = CC(C)(C)O*; NHNH2 = NN*
# Tested on: P388 leukemia ip, CD2F1 mice, survival T/C
# Experiment: NCI In Vivo Anticancer Drug Screen. Data for tumor model P388 Leukemia (intraperitoneal) in CD2F1 (CDF1) mice
# Details: endpoint: median survival time, higher = longer survival
# Summary of the method: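 Mice carrying the transplanted tumor received test compound or vehicle. Survival was recorded in each group, and the value is the treated-group measurement divided by that of the vehicle-treated control group.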
# [1] = dose: 50.0 mg/kg/injection, schedule: Q01DX009 (ip), vehicle: saline with Tween-80
# [2] = dose: 100.0 mg/kg/injection, schedule: Q01DX009 (ip), vehicle: saline with Tween-80
# [3] = dose: 200.0 mg/kg/injection, schedule: Q01DX009 (ip), vehicle: saline with Tween-80
# [4] = dose: 200.0 mg/kg/injection, schedule: Q01DX009 (ip), vehicle: saline
# [5] = dose: 6.25 mg/kg/injection, schedule: Q01DX009 (ip), vehicle: saline with Tween-80
# [6] = dose: 25.0 mg/kg/injection, schedule: Q01DX009 (ip), vehicle: Klucel (hydroxypropylcellulose) (HPC)
# [7] = dose: 50.0 mg/kg/injection, schedule: Q01DX009 (ip), vehicle: Klucel (hydroxypropylcellulose) (HPC)
# [8] = dose: 25.0 mg/kg/injection, schedule: Q01DX009 (ip), vehicle: saline with Tween-80
# [9] = dose: 50.0 mg/kg/injection, schedule: Q01DX001 (ip), vehicle: Klucel (hydroxypropylcellulose) (HPC)
smiles,measurement,setting,value
Cc1ccc(S(=O)(=O)N/N=C/c2ccoc2)cc1,T/C,"dose: 12.5 mg/kg/injection, schedule: Q01DX005 (ip), vehicle: distilled water + Tween-80",100 % of control
same,T/C,"dose: 25.0 mg/kg/injection, schedule: Q01DX005 (ip), vehicle: distilled water + Tween-80",102 % of control
same,T/C,"dose: 50.0 mg/kg/injection, schedule: Q01DX005 (ip), vehicle: distilled water + Tween-80",93 % of control
same,T/C,"dose: 100.0 mg/kg/injection, schedule: Q01DX005 (ip), vehicle: distilled water + Tween-80",102 % of control
same,T/C,"dose: 200.0 mg/kg/injection, schedule: Q01DX005 (ip), vehicle: distilled water + Tween-80",100 % of control
O=C(NN=C1c2ccccc2-c2ccccc21)Nc1ccccc1,T/C,[1],95 % of control
same,T/C,[2],96 % of control
same,T/C,[3],96 % of control
CSCC(=O)O,T/C,"dose: 50.0 mg/kg/injection, schedule: Q01DX009 (ip), vehicle: saline",106 % of control
same,T/C,"dose: 100.0 mg/kg/injection, schedule: Q01DX009 (ip), vehicle: saline",106 % of control
same,T/C,[4],97 % of control
CCCCCCCCCCCCOP(=O)(N1CC1(C)C)N1CC1(C)C (centres undefined),T/C,"dose: 2.0 mg/kg/injection, schedule: Q01DX009 (ip), vehicle: saline with Tween-80",108 % of control and 113 % of control
same,T/C,"dose: 4.0 mg/kg/injection, schedule: Q01DX009 (ip), vehicle: saline with Tween-80",103 % of control and 108 % of control
same,T/C,"dose: 8.0 mg/kg/injection, schedule: Q01DX009 (ip), vehicle: saline with Tween-80",114 % of control and 117 % of control
same,T/C,"dose: 16.0 mg/kg/injection, schedule: Q01DX009 (ip), vehicle: saline with Tween-80",102 % of control and 117 % of control
Cc1nn(C)c(Cl)c1C(=O)Nc1ccccc1,T/C,"dose: 50.0 mg/kg/injection, schedule: Q01DX005 (ip), vehicle: saline with Tween-80",96 % of control
same,T/C,"dose: 60.0 mg/kg/injection, schedule: Q01DX005 (ip), vehicle: saline with Tween-80",98 % of control
same,T/C,"dose: 100.0 mg/kg/injection, schedule: Q01DX005 (ip), vehicle: saline with Tween-80",96 % of control
same,T/C,"dose: 200.0 mg/kg/injection, schedule: Q01DX005 (ip), vehicle: saline with Tween-80",90 % of control
same,T/C,"dose: 240.0 mg/kg/injection, schedule: Q01DX005 (ip), vehicle: saline with Tween-80",92 % of control
C/C=C(/C)C(=O)O[C@H]1CC[C@@]2(C)[C@@H]3CC[C@H]4[C@]5(O)C[C@H](O)[C@@]6(O)[C@@H](CN7C[C@@H](C)CC[C@H]7[C@@]6(C)O)[C@]5(O)C[C@@]42O[C@@]13O,T/C,"dose: 0.39 mg/kg/injection, schedule: Q01DX009 (ip), vehicle: saline with Tween-80",97 % of control
same,T/C,"dose: 0.5 mg/kg/injection, schedule: Q01DX009 (ip), vehicle: saline",95 % of control
same,T/C,"dose: 0.78 mg/kg/injection, schedule: Q01DX009 (ip), vehicle: saline with Tween-80",101 % of control
same,T/C,"dose: 1.0 mg/kg/injection, schedule: Q01DX009 (ip), vehicle: saline",109 % of control
same,T/C,"dose: 1.56 mg/kg/injection, schedule: Q01DX009 (ip), vehicle: saline with Tween-80",101 % of control
same,T/C,"dose: 2.0 mg/kg/injection, schedule: Q01DX009 (ip), vehicle: saline",109 % of control
same,T/C,"dose: 3.12 mg/kg/injection, schedule: Q01DX009 (ip), vehicle: saline with Tween-80",97 % of control
same,T/C,[5],88 % of control
C=CCc1ccc(O)cc1,T/C,[6],93 % of control
same,T/C,[7],99 % of control
same,T/C,"dose: 100.0 mg/kg/injection, schedule: Q01DX009 (ip), vehicle: Klucel (hydroxypropylcellulose) (HPC)",107 % of control
same,T/C,"dose: 200.0 mg/kg/injection, schedule: Q01DX009 (ip), vehicle: Klucel (hydroxypropylcellulose) (HPC)",99 % of control
COc1ccc(C2OCOCC2C)cc1 (centres undefined),T/C,[8],103 % of control
same,T/C,[1],100 % of control
same,T/C,[2],103 % of control
same,T/C,[3],101 % of control
same,T/C,"dose: 400.0 mg/kg/injection, schedule: Q01DX009 (ip), vehicle: saline with Tween-80",95 % of control
CN(C)CCCC1(c2ccccc2)SC(C)(C)c2ccc(Cl)cc21 (centres undefined),T/C,"dose: 25.0 mg/kg/injection, schedule: Q01DX001 (ip), vehicle: Klucel (hydroxypropylcellulose) (HPC)",102 % of control
same,T/C,[9],100 % of control
NC(N)=NC(N)=Nc1ccc(-c2ccc(N=C(N)N=C(N)N)cc2)cc1,T/C,"dose: 3.13 mg/kg/injection, schedule: Q01DX009 (ip), vehicle: saline with Tween-80",108 % of control
same,T/C,[5],106 % of control
NC1C(N)C(N)C1N (centres undefined),T/C,"dose: 12.5 mg/kg/injection, schedule: Q01DX005 (ip), vehicle: water",102 % of control
same,T/C,"dose: 25.0 mg/kg/injection, schedule: Q01DX005 (ip), vehicle: water",102 % of control
same,T/C,"dose: 50.0 mg/kg/injection, schedule: Q01DX005 (ip), vehicle: water",102 % of control
same,T/C,"dose: 100.0 mg/kg/injection, schedule: Q01DX005 (ip), vehicle: water",98 % of control
same,T/C,"dose: 200.0 mg/kg/injection, schedule: Q01DX005 (ip), vehicle: water",94 % of control
NC(CC(=O)NO)C(=O)O (centres undefined),T/C,[4],110 % of control
same,T/C,"dose: 400.0 mg/kg/injection, schedule: Q01DX009 (ip), vehicle: saline",120 % of control
Cc1cc(C)c(S(=O)(=O)OCC2OC(OC3(COS(=O)(=O)c4c(C)cc(C)cc4C)OC(COS(=O)(=O)c4c(C)cc(C)cc4C)C(O)C3O)C(O)C(O)C2O)c(C)c1 (centres undefined),T/C,[6],107 % of control
same,T/C,[7],99 % of control
O=c1c(N=Nc2ccc(Br)cc2)c(O)n(-c2ccccc2Cl)c(=S)n1-c1ccccc1,T/C,[9],94 % of control
same,T/C,"dose: 100.0 mg/kg/injection, schedule: Q01DX001 (ip), vehicle: Klucel (hydroxypropylcellulose) (HPC)",98 % of control
same,T/C,"dose: 200.0 mg/kg/injection, schedule: Q01DX001 (ip), vehicle: Klucel (hydroxypropylcellulose) (HPC)",94 % of control
COC(=O)C1=C(/C=C/C(C)=O)NC(C)=C(C(=O)OC(C)C)C1c1ccccc1Cl (centres undefined),T/C,"dose: 25.0 mg/kg/injection, schedule: Q01DX005 (ip), vehicle: Klucel (hydroxypropylcellulose) (HPC)",105 % of control
same,T/C,"dose: 50.0 mg/kg/injection, schedule: Q01DX005 (ip), vehicle: Klucel (hydroxypropylcellulose) (HPC)",99 % of control and 108 % of control and 96 % of control
same,T/C,"dose: 100.0 mg/kg/injection, schedule: Q01DX005 (ip), vehicle: Klucel (hydroxypropylcellulose) (HPC)",102 % of control and 104 % of control and 113 % of control
same,T/C,"dose: 200.0 mg/kg/injection, schedule: Q01DX005 (ip), vehicle: Klucel (hydroxypropylcellulose) (HPC)",108 % of control and 116 % of control
CSc1cc(C)c(O)c(C)c1,T/C,"dose: 100.0 mg/kg/injection, schedule: Q04DX003 (ip), vehicle: other",109 % of control
same,T/C,"dose: 200.0 mg/kg/injection, schedule: Q04DX003 (ip), vehicle: other",100 % of control
same,T/C,"dose: 400.0 mg/kg/injection, schedule: Q04DX003 (ip), vehicle: other",100 % of control
CSC(SC)=C(C#N)c1nc(SC)c(C#N)c(SC)n1,T/C,"dose: 50.0 mg/kg/injection, schedule: Q04DX003 (ip), vehicle: saline",102 % of control
same,T/C,"dose: 100.0 mg/kg/injection, schedule: Q04DX003 (ip), vehicle: saline",112 % of control
CCN(N=Nc1ccc(OC)cc1)c1ccc(OC)cc1,T/C,"dose: 12.5 mg/kg/injection, schedule: Q01DX009 (ip), vehicle: saline with Tween-80",103 % of control and 96 % of control
same,T/C,[8],108 % of control and 109 % of control
same,T/C,[1],116 % of control and 117 % of control
same,T/C,[2],100 % of control and 124 % of control
CC(C)(C(=S)[S-])[P+](c1ccccc1)(c1ccccc1)c1ccccc1,T/C,"dose: 60.0 mg/kg/injection, schedule: Q01DX005 (ip), vehicle: Klucel (hydroxypropylcellulose) (HPC)",96 % of control
same,T/C,"dose: 120.0 mg/kg/injection, schedule: Q01DX005 (ip), vehicle: Klucel (hydroxypropylcellulose) (HPC)",92 % of control
same,T/C,"dose: 240.0 mg/kg/injection, schedule: Q01DX005 (ip), vehicle: Klucel (hydroxypropylcellulose) (HPC)",88 % of control
CCC(C)C(NC(=O)CNC(=O)OC(C)(C)C)C(=O)NC(C(=O)NC(CCC(=O)OC(C)(C)C)C(=O)NN)C(C)C (centres undefined) (Boc-GIVE(OtBu)-NHNH2; configuration not given here),T/C,"dose: 6.25 mg/kg/injection, schedule: Q01DX001 (ip), vehicle: saline with Tween-80",100 % of control
same,T/C,"dose: 12.5 mg/kg/injection, schedule: Q01DX001 (ip), vehicle: saline with Tween-80",100 % of control
same,T/C,"dose: 25.0 mg/kg/injection, schedule: Q01DX001 (ip), vehicle: saline with Tween-80",95 % of control
ClCCN(CCCl)c1ccc(CCCCN2CCCCC2)cc1,T/C,"dose: 6.25 mg/kg/injection, schedule: Q01DX009 (ip), vehicle: Klucel (hydroxypropylcellulose) (HPC)",153 % of control
same,T/C,"dose: 12.5 mg/kg/injection, schedule: Q01DX009 (ip), vehicle: Klucel (hydroxypropylcellulose) (HPC)",183 % of control
